In patent publication US20110105509A1 (Wyeth, LLC, priority 2009, published 2011):

Each molecule was assayed against T1, CRTH2 (Homo sapiens, UniProt Q9Y5Y4) (assay: FRET based competitive immunoassay (cAMP) in CRTH2 expressing CHO cells). Conditions: CRTH2 expressing CHO cells incubated with forskolin and PGD2; Eu3+ cryptate-labeled anti-cAMP and d2-labeled cAMP.
T1 construct: expressed in transfected cells; host or cells: CHO cells
T1 sequence (Q9Y5Y4 1-395): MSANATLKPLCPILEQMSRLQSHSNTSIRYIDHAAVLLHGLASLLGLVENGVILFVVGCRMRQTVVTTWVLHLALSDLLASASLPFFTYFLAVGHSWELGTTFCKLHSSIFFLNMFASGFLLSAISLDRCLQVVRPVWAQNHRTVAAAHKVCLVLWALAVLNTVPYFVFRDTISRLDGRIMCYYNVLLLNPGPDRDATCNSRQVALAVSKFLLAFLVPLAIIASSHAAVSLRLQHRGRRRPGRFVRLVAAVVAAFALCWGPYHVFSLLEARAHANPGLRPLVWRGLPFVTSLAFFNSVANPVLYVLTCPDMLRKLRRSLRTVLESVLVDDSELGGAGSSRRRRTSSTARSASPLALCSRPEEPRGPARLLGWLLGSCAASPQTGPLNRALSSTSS
Type: cell-based
Method: FRET Assay: To evaluate potency compounds were tested in a FRET based competitive immunoassay in which CRTH2 expressing CHO cells were incubated in the presence of forskolin and PGD2 along with Eu3+ cryptate-labeled anti-cAMP and d2-labeled cAMP.

Going from `COC(F)(F)Cn1cc(-c2c(C)n(CC(=O)O)c3ccccc23)c2ccccc2c1=O` [Example 253, 2-(3-(2-(2,2-difluoro-2-methoxyethyl)-1-oxo-1,2-dihydroisoquinolin-4-yl)-2-methyl-1H-indol-1-yl)acetic acid] to `CCn1nc(-c2c(C)n(CC(=O)O)c3ccccc23)c2ccccc2c1=O` [Example 175, 2-(3-(3-ethyl-4-oxo-3,4-dihydrophthalazin-1-yl)-2-methyl-1H-indol-1-yl)-acetic acid], the IC50 rises from 0.009 µM to 0.175 µM (19-fold).

First: Cc1c(-c2ccc(=O)n(Cc3ccccc3)c2)c2cc(Cl)ccc2n1CC(=O)O [Example 264, 2-(3-(1-benzyl-6-oxo-1,6-dihydropyridin-3-yl)-5-chloro-2-methyl-1H-indol-1-yl)acetic acid]
Second: Cc1c(-c2ccc(=O)n(Cc3ccc(F)cc3)c2)c2cc(Cl)ccc2n1CC(=O)O [Example 289, 2-(5-chloro-3-(1-(4-fluorobenzyl)-6-oxo-1,6-dihydropyridin-3-yl)-2-methyl-1H-indol-1-yl)acetic acid]
The IC50 of the first is 1.7-fold higher: 0.01 µM for the first, 0.006 µM for the second.

`Cc1c(-c2ccc(=O)n(CCC(F)(F)F)c2)c2cc(F)ccc2n1CC(=O)O` [Example 307, 2-(5-fluoro-2-methyl-3-(6-oxo-1-(3,3,3-trifluoropropyl)-1,6-dihydropyridin-3-yl)-1H-indol-1-yl)acetic acid] and `Cc1c(-c2ccc(=O)n(CCCC(F)(F)F)c2)c2cc(F)ccc2n1CC(=O)O` [Example 297, 2-(5-fluoro-2-methyl-3-(6-oxo-1-(4,4,4-trifluorobutyl)-1,6-dihydropyridin-3-yl)-1H-indol-1-yl)acetic acid] are within 1.5-fold of each other in IC50: 0.028 µM for the first, 0.038 µM for the second.

First: Cc1c(Cc2ccc(=O)n(Cc3ccc(F)cc3)c2)c2cc(F)ccc2n1CC(=O)O [Example 41, 2-(5-Fluoro-3-((1-(4-fluorobenzyl)-6-oxo-1,6-dihydropyridin-3-yl)methyl)-2-methyl-1H-indol-1-yl)acetic acid]
Second: Cc1c(Cc2ccc(=O)n(Cc3ccc(F)cc3F)c2)c2cc(Cl)ccc2n1CC(=O)O [Example 42, 2-(5-Chloro-3-((1-(2,4-difluorobenzyl)-6-oxo-1,6-dihydropyridin-3-yl)-methyl)-2-methyl-1H-indol-1-yl)acetic acid]
The IC50 of the first is 2.3-fold lower: 0.003 µM for the first, 0.007 µM for the second. The first is the more potent here.

First: Cc1c(Cc2ccc(=O)n(Cc3cc(F)c(F)cc3F)n2)c2cc(F)ccc2n1CC(=O)O [Example 193, 2-(5-fluoro-2-methyl-3-((6-oxo-1-(2,4,5-trifluorobenzyl)-1,6-dihydro-pyridazin-3-yl)methyl)-1H-indol-1-yl)acetic acid]
Second: Cc1c(Cc2ccc(=O)n(Cc3ccc(F)cc3F)n2)c2cc(F)cc(F)c2n1CC(=O)O [Example 242, 2-(3-((1-(2,4-difluorobenzyl)-6-oxo-1,6-dihydropyridazin-3-yl)methyl)-5,7-difluoro-2-methyl-1H-indol-1-yl)acetic acid]
The IC50 of the first is 3.5-fold lower: 0.008 µM for the first, 0.028 µM for the second.

Going from `Cc1c(-c2nn(Cc3ccccc3F)c(=O)c3ccccc23)c2cc(Cl)ccc2n1CC(=O)O` [Example 98, 2-(5-Chloro-3-(3-(2-fluorobenzyl)-4-oxo-3,4-dihydrophthalazin-1-yl)-2-methyl-1H-indol-1-yl)acetic acid] to `Cc1c(-c2nn(CCOc3ccccc3)c(=O)c3ccccc23)c2cc(F)ccc2n1CC(=O)O` [Example 222, 2-(5-fluoro-2-methyl-3-(4-oxo-3-(2-phenoxyethyl)-3,4-dihydrophthalazin-1-yl)-1H-indol-1-yl)acetic acid], the IC50 falls from 0.017 µM to 0.001 µM (17-fold). The second is the more potent here.

First: Cc1c(CC2=NN(CC(F)(F)F)C(=O)CC2)c2cc(F)ccc2n1CC(=O)O [Example 57, 2-(5-Fluoro-2-methyl-3-((6-oxo-1-(2,2,2-trifluoroethyl)-1,4,5,6-tetrahydropyridazin-3-yl)-methyl)-1H-indol-1-yl)acetic acid]
Second: Cc1c(-c2ccc(=O)n(CC(C)(C)C)n2)c2cc(F)ccc2n1CC(=O)O [Example 165, 2-(5-fluoro-2-methyl-3-(1-neopentyl-6-oxo-1,6-dihydropyridazin-3-yl)-1H-indol-1-yl)acetic acid]
The IC50 of the first is lower: 0.005 µM for the first, over 1 µM for the second.

First: Cc1c(-c2cn(Cc3ccccc3)c(=O)c3c2CCCC3)c2cc(F)ccc2n1CC(=O)O [Example 88, 2-(3-(2-benzyl-1-oxo-1,2,5,6,7,8-hexahydroisoquinolin-4-yl)-5-fluoro-2-methyl-1H-indol-1-yl)acetic acid]
Second: Cc1c(-c2ccc(=O)n(Cc3ccccc3F)c2)c2cc(F)ccc2n1CC(=O)O [Example 266, 2-(5-fluoro-3-(1-(2-fluorobenzyl)-6-oxo-1,6-dihydropyridin-3-yl)-2-methyl-1H-indol-1-yl)acetic acid]
The IC50 of the first is 22-fold higher: 0.197 µM for the first, 0.009 µM for the second. The second is the more potent here.

Going from `Cc1c(-c2nn(C)c(=O)c3ccccc23)c2cc(F)ccc2n1CC(=O)O` [Example 120, 2-(5-fluoro-2-methyl-3-(3-methyl-4-oxo-3,4-dihydrophthalazin-1-yl)-1H-indol-1-yl)acetic acid] to `Cc1c(-c2nn(Cc3cc(F)c(F)cc3F)c(=O)c3ccccc23)c2cc(F)ccc2n1CC(=O)O` [Example 63, 2-(5-fluoro-2-methyl-3-(4-oxo-3-(2,4,5-trifluorobenzyl)-3,4-dihydro-phthalazin-1-yl)-1H-indol-1-yl)acetic acid], the IC50 falls from 0.201 µM to 0.015 µM (13-fold). The second is the more potent here.

Going from `Cc1c(-c2ccc(=O)n(Cc3ccc(F)cc3F)c2)c2cc(Cl)ccc2n1CC(=O)O` [Example 274, 2-(5-chloro-3-(1-(2,4-difluorobenzyl)-6-oxo-1,6-dihydropyridin-3-yl)-2-methyl-1H-indol-1-yl)acetic acid] to `Cc1c(-c2ccc(=O)n(Cc3c(F)cccc3F)c2)c2ccccc2n1CC(=O)O` [Example 285, 2-(3-(1-(2,6-difluorobenzyl)-6-oxo-1,6-dihydropyridin-3-yl)-2-methyl-1H-indol-1-yl)acetic acid], the IC50 rises from 0.003 µM to 0.023 µM (7.7-fold).

Going from `Cc1c(-c2ccc(=O)n(Cc3ccccc3)n2)c2cc(Br)ccc2n1CC(=O)O` [Example 219, 2-(3-(1-benzyl-6-oxo-1,6-dihydropyridazin-3-yl)-5-bromo-2-methyl-1H-indol-1-yl)-acetic acid] to `Cc1c(-c2ccc(=O)n(Cc3nc4ccccc4s3)n2)c2cc(Cl)ccc2n1CC(=O)O` [Example 141, 2-(3-(1-(benzo[d]thiazol-2-ylmethyl)-6-oxo-1,6-dihydropyridazin-3-yl)-5-chloro-2-methyl-1H-indol-1-yl)acetic acid], the IC50 rises from 0.03 µM to 0.046 µM (1.5-fold). The first is the more potent here.

First: Cc1c(Cc2ccc(=O)n(Cc3ccccc3)c2)c2ccccc2n1CC(=O)O [Example 348, {3-[(1-benzyl-6-oxo-1,6-dihydropyridin-3-yl)methyl]-2-methyl-1H-indol-1-yl}acetic acid]
Second: Cc1c(-c2nn(Cc3ccc4ccccc4n3)c(=O)c3ccccc23)c2ccccc2n1CC(=O)O [Example 169, 2-(2-methyl-3-(4-oxo-3-(quinolin-2-ylmethyl)-3,4-dihydrophthalazin-1-yl)-1H-indol-1-yl)acetic acid]
The IC50 of the first is 5.9-fold higher: 0.082 µM for the first, 0.014 µM for the second. The second is the more potent here.

Compared with `Cc1c(-c2ccc(=O)n(C)n2)c2cc(Cl)ccc2n1CC(=O)O` [Example 149, 2-(5-chloro-2-methyl-3-(1-methyl-6-oxo-1,6-dihydropyridazin-3-yl)-1H-indol-1-yl)acetic acid], `COc1ccc(C(=O)n2c(C)c(-c3ccc(=O)n(Cc4ccccc4)n3)c3cc(F)ccc32)cc1` [Example 262a, 2-benzyl-6-(5-fluoro-1-(4-methoxybenzoyl)-2-methyl-1H-indol-3-yl)-pyridazin-3(2H)-one] is higher in IC50: 2.15 µM for the first, over 10 µM for the second. The first is the more potent here.
